{
  "source": "patent US20240148749A1",
  "about": "(priority 2021, published 2024)",
  "key": {"microglial cells": {"system": "microglial cells", "experiment": "Microglial ROS/RNS, antioxidant defense and bioenergetic/mitochondrial parameters at 21 days", "type": "in vivo, mouse", "procedure": "(§1) Data shown are mean values (±SD). Gray bars represent MnTBAP-treated mice from either CLP or control groups, and black bars represent placebo-treated mice from either CLP or Control groups. Two-way analyses of variance (ANOVAs) (CLP vs control×MnTBAP vs Placebo) were performed. When a significant interaction was observed, planned comparisons were performed for the CLP/Placebo group against the three other groups. The significance of the planned comparisons is indicated with asterisks (*p<0.05, **p<0.01, ***p<0.001, ****p<0.0001) .\nas §1, with “Control×MnTBAP” for “control×MnTBAP”, “****p<0.0001).” for “****p<0.0001) .”\n(§2) MnTBAP is commercially available: it is for example manufactured by Sigma-Aldrich, Calbiochem, etc. For use it is dissolved following the guidance provided by the manufacturer.\nBrains were collected for cell dissociation and Cdllb-positive cell separation using a magnetic coupled antibody (MACS® Technology), according to the manufacturer's protocol (Miltenyi Biotec, Bergisch Gladbach, Germany) and as previously described (Schang et al., 2014). In brief, mice were intracardially perfused with NaCl 0,9%. The brains are then dissociated using the Neural Tissue Dissociation Kit containing trypsin and the gentleMACS Octo Dissociator with Heaters. From the resulting brain homogenate, cd11 b-positive cells were enriched using the anti-cd11 b MicroBeads. After elution the isolated cells were centrifuged for 5 min at 200G and conserved at −80° C.\nTotal RNA was isolated from cells using the RNAeasy Micro kit (Qiagen), and reverse-transcribed using Superscript® III Reverse transcriptase (Invitrogen). Real-time quantitative PCR was performed in duplicate for each sample using Power Sybr Green PCR Master Mix (Applied Biosystems) and the rate of dye incorporation was monitored using the StepOne™ Plus RealTime PCR system (Applied Biosystems). Data were analyzed by StepOne Plus RT PCR software v2.1 and Microsoft excel. Amplification specificity was assessed with a melting curve analysis. TBP transcript levels were used for normalisation of each target (=ΔCT). Real-time PCR CT values were analyzed using the 2^−(ΔCt) method to calculate the fold expression (Schmittgen et al., 2008). The data are presented as relative mRNA units with respect to control group (expressed as fold over control value). Primer sequences available upon request.\nMicroglial cells and brain samples were resuspended in lysis buffer (50 mM TrisHCI pH 7.5, 150 mM NaCl, 1% Triton X-100, 0.1% SDS, 1 mM EDTA, and protease inhibitor mixture), mechanically homogenized with a piston, briefly vortexed and incubated for 30 min at 4° C. Lysed samples were briefly centrifuged to remove debris, and the whole supernatant extract was collected. Aliquots of the supernatant were immediately used for the assessment of ROS level, RNS level, dual ROS/RNS level, SOD activity, and Acetyl-Coa level. The protein content was determined with the Bradford reagent (Sigma-Aldrich).\nBoth ROS and RNS were measured by incubating CellROX (Life Technologies) with 30 μg of freshly extracted total proteins for 45 min at 37° C. in the dark in 96-wells plate in triplicate. Fluorescence intensity was measured using near-infra-red fluorescence setting with the plate reader Odyssey Infrared Imaging system scanner and Odyssey application software v3.0 (LI-COR Biosciences, Lincoln, NE).\nSOD activity was measured with Superoxide Dismutase Activity Colorimetric Assay kit (Abcam, ab65354), following the manufacturer's instructions. […]"}, "brain tissue": {"system": "brain tissue", "experiment": "Cytokine and chemokine levels in mice brain at 21 days after CLP (Luminex)", "type": "in vivo, mouse", "details": "CLP vs control × MnTBAP vs placebo", "procedure": "We used peritonitis induced by CLP as a model of sepsis (Rittirsch et al., 2009). Briefly, animals were anesthetized with ketamine (Imalgene® 1000 100 mg/kg, Merial, France) and Xylazine (Rompun® 2% 20 mg/kg, Bayer, Germany) prior to surgery. After laparotomy, caecum was ligatured at the distal third with a 4.0 suture and the distal part was perforated twice with a 21 Gauge needle.\nas §2\nBrain: snap frozen brain samples (n=6 per condition and per time point) were thawed, lysed by mechanical agitation (lysing matrix), and supernatant was aliquoted and stored at −80° C. until analysis.\nThese samples were processed for Luminex® multiple cytokine and chemokine analysis (Bio-Plex® Pro™ Mouse Cytokine Standard 23-flex, Group I and Standard 9-flex, Group II). Fifty microlitres of sample was analyzed on the Bio-flex system (Bio-Rad) in accordance with the manufacturers instructions. Data analyses for all assays were performed using the Bio-flex Manager software. […] Normalization was done by weight of the frozen brain sample.\nThe data represent the level of protein expression in pg mg^−1 of brain tissue using Luminex®. Control mice were non-operated but anesthetized. Median values of n=5 mice per group are represented. […]"}, "[1]": {"details": "CLP mice + MnTBAP compared to CLP-placebo mice, 21 days"}, "[2]": {"details": "CLP mice + MnTBAP vs CLP-placebo, 21 days after sepsis, remained different from Control-Placebo"}, "[3]": {"details": "MnTBAP in control mice vs Control-placebo mice"}, "[4]": {"details": "MnTBAP in control mice vs Control-placebo mice, p<0.0001"}, "[5]": {"details": "MnTBAP in control mice vs Control-placebo mice, p=0.0003"}},
  "data": [
    {"smiles": "O=C(O)c1ccc(/C2=C3\\C=CC(=N3)/C(c3ccc(C(=O)O)cc3)=c3/cc/c4[n]3[Mn]([Cl])[n]3c2ccc3/C(c2ccc(C(=O)O)cc2)=C2/C=CC(=N2)\\C=4c2ccc(C(=O)O)cc2)cc1", "note": "[MnTBAP, Manganese (III) tetrakis (4-benzoic acid)porphyrin chloride]", "values": [
      {"measurement": "microglial OXPHOS/glycolysis ATP balance", "setting": "microglial cells; [1]", "value": "strong microglial metabolic shift from mitochondrial OXPHOS to glycolysis"},
      {"measurement": "microglial PGC1 alpha expression", "setting": "microglial cells; [1]", "value": "increase"},
      {"measurement": "microglial mtDNA content", "setting": "microglial cells; [1]", "value": "strong mtDNA content increase"},
      {"measurement": "microglial mtRNA 16S expression", "setting": "microglial cells; [1]", "value": "strong increase"},
      {"measurement": "microglial mtRNA CytB expression", "setting": "microglial cells; [1]", "value": "strong increase"},
      {"measurement": "microglial NRF2 transcript expression", "setting": "microglial cells; [2]", "value": "significantly increasing"},
      {"measurement": "microglial ROS/RNS levels", "setting": "microglial cells; [2]", "value": "significantly increasing"},
      {"measurement": "microglial SOD1 transcript expression", "setting": "microglial cells; [2]", "value": "significantly increasing"},
      {"measurement": "microglial SOD2 transcript expression", "setting": "microglial cells; [2]", "value": "significantly increasing"},
      {"measurement": "microglial SOD activity", "setting": "microglial cells; [2]", "value": "significantly increasing"},
      {"measurement": "microglial catalase transcript expression", "setting": "microglial cells; [2]", "value": "significantly increasing"},
      {"measurement": "sepsis-induced microglial reprogramming and alterations", "setting": "microglial cells; CLP mice, 21 days after sepsis", "value": "successfully reversed"},
      {"measurement": "microglial bioenergetic metabolite acetyl-CoA level", "setting": "microglial cells; CLP mice, systemic MnTBAP treatment, FIG. 8", "value": "reduction"},
      {"measurement": "microglial ATP generation", "setting": "microglial cells; [3]", "value": "did not affect"},
      {"measurement": "microglial SOD activity", "setting": "microglial cells; [3]", "value": "did not affect"},
      {"measurement": "microglial glycolysis contribution", "setting": "microglial cells; [3]", "value": "did not affect"},
      {"measurement": "microglial mtDNA content", "setting": "microglial cells; MnTBAP in control mice vs Control-placebo mice, 0.01", "value": "reduced"},
      {"measurement": "microglial NRF2 expression", "setting": "microglial cells; [4]", "value": "slightly reduced"},
      {"measurement": "microglial SOD1 expression", "setting": "microglial cells; [4]", "value": "slightly reduced"},
      {"measurement": "microglial mtRNA 16S level", "setting": "microglial cells; [4]", "value": "reduced"},
      {"measurement": "microglial mtRNA CytB level", "setting": "microglial cells; [4]", "value": "reduced"},
      {"measurement": "microglial PGC1 alpha expression", "setting": "microglial cells; [5]", "value": "reduced"},
      {"measurement": "microglial SOD2 expression", "setting": "microglial cells; [5]", "value": "slightly reduced"},
      {"measurement": "microglial catalase expression", "setting": "microglial cells; MnTBAP in control mice vs Control-placebo mice, p=0.0036", "value": "slightly reduced"},
      {"measurement": "microglial ROS/RNS levels", "setting": "microglial cells; MnTBAP in control mice vs Control-placebo mice, p=0.005", "value": "slightly reduced"},
      {"measurement": "measured brain tissue cytokines, two-way ANOVA", "setting": "brain tissue", "value": "did not show any CLP vs control×MnTBAP vs placebo interaction, or difference linked to condition or treatment between the groups"}
    ]}
  ]
}
